From PubChem BioAssay (NCI)
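Five compound concentrations were applied to cells in 96-well plates for 48 hours; endpoints were derived by simple linear interpolation of the resulting dose-response curve. GI50 = concentration required for 50% inhibition of growth. TGI: concentration producing complete growth inhibition.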

Legend:
Assay in all cases: NCI tumour cell line growth inhibition, 48 h
[1] = test system: A498 renal
[2] = test system: A549 NSCLC
[3] = test system: CAKI-1 renal
[4] = test system: CCRF-CEM leukemia
[5] = test system: COLO 205 colon
[6] = test system: DMS 114 small cell lung
[7] = test system: DMS 273 small cell lung
[8] = test system: EKVX NSCLC
[9] = test system: HCC-2998 colon
[10] = test system: HCT-116 colon
[11] = test system: HCT-15 colon
[12] = test system: HL-60(TB) leukemia
[13] = test system: HOP-18 NSCLC
[14] = test system: HOP-62 NSCLC
[15] = test system: HOP-92 NSCLC
[16] = test system: HT29 colon
[17] = test system: IGROV1 ovarian
[18] = test system: K-562 leukemia
[19] = test system: KM12 colon
[20] = test system: KM20L2 colon
[21] = test system: LOX IMVI melanoma
[22] = test system: M19-MEL melanoma
[23] = test system: MALME-3M melanoma
[24] = test system: MCF7 breast
[25] = test system: MOLT-4 leukemia
[26] = test system: NCI-H226 lung
[27] = test system: NCI-H23 lung
[28] = test system: NCI-H460 lung
[29] = test system: NCI-H522 lung
[30] = test system: NCI/ADR-RES ovarian
[31] = test system: OVCAR-3 ovarian
[32] = test system: OVCAR-4 ovarian
[33] = test system: OVCAR-5 ovarian
[34] = test system: OVCAR-8 ovarian
[35] = test system: P388 leukemia
[36] = test system: P388/ADR leukemia
[37] = test system: RPMI-8226 leukemia
[38] = test system: SF-268 CNS
[39] = test system: SF-295 CNS
[40] = test system: SF-539 CNS
[41] = test system: SK-MEL-2 melanoma
[42] = test system: SK-MEL-28 melanoma
[43] = test system: SK-MEL-5 melanoma
[44] = test system: SK-OV-3 ovarian
[45] = test system: SN12C renal
[46] = test system: SN12K1 renal
[47] = test system: SNB-19 CNS
[48] = test system: SNB-75 CNS
[49] = test system: SNB-78 CNS
[50] = test system: SW-620 colon
[51] = test system: U251 CNS
[52] = test system: UACC-257 melanoma
[53] = test system: UACC-62 melanoma
[54] = test system: UO-31 renal
[55] = test system: XF 498 CNS
[56] = test system: 786-0 renal
[57] = test system: ACHN renal
[58] = test system: BT-549 breast
[59] = test system: DLD-1 colon
[60] = test system: DU-145 prostate
[61] = test system: HS 578T breast
[62] = test system: LXFL 529 NSCLC
[63] = test system: M14 melanoma
[64] = test system: MDA-MB-231 breast
[65] = test system: MDA-MB-435
[66] = test system: MDA-N
[67] = test system: PC-3 prostate
[68] = test system: RXF 393 renal
[69] = test system: RXF-631 renal
[70] = test system: TK-10 renal

Question: What does the source list for [C-]#[O+].[Cl][Sn]([Cl])[Cl].[Cl][Sn]([Cl])[Cl].[Pt].c1cnc2c(c1)ccc1cccnc12?
Answer: TGI [1]: 13.3 µM; TGI [2]: > 100 µM; TGI [3]: > 100 µM; TGI [4]: > 29.8 µM; TGI [5]: > 100 µM; GI50 [6]: 4.14 µM; TGI [6]: > 39.4 µM; GI50 [7]: 2.59 µM; TGI [7]: 6 µM; TGI [8]: 44.4 µM; TGI [9]: 13.1 µM; TGI [10]: > 24.6 µM; TGI [11]: > 44 µM; TGI [12]: 7.95 µM; GI50 [13]: 6.73 µM; TGI [13]: > 100 µM; TGI [14]: 45.3 µM; TGI [15]: 51.5 µM; TGI [16]: > 100 µM; TGI [17]: 35.7 µM; TGI [18]: > 48.3 µM; TGI [19]: > 100 µM; GI50 [20]: 1.97 µM; TGI [20]: 4.54 µM; TGI [21]: 15.8 µM; GI50 [22]: 3.25 µM; TGI [22]: > 31.6 µM; TGI [23]: > 100 µM; TGI [24]: 56.4 µM; TGI [25]: > 30.9 µM; TGI [26]: > 42.4 µM; TGI [27]: > 100 µM; TGI [28]: 23.5 µM; TGI [29]: > 100 µM; TGI [30]: 10.1 µM; TGI [31]: > 69.8 µM; TGI [32]: > 27.4 µM; TGI [33]: > 59.5 µM; TGI [34]: > 100 µM; GI50 [35]: 2.12 µM; TGI [35]: 5.68 µM; GI50 [36]: 1.78 µM; TGI [36]: 5.1 µM; TGI [37]: > 65.8 µM; TGI [38]: > 79 µM; TGI [39]: > 36.5 µM; TGI [40]: 16.6 µM; TGI [41]: 18.6 µM; TGI [42]: 46.9 µM; TGI [43]: 13.4 µM; TGI [44]: 27.8 µM; TGI [45]: > 61.2 µM; GI50 [46]: 3.37 µM; TGI [46]: 16.7 µM; TGI [47]: > 27.1 µM; TGI [48]: 61.6 µM; GI50 [49]: 15.8 µM; TGI [49]: 66 µM; TGI [50]: > 100 µM; TGI [51]: 15 µM; TGI [52]: > 100 µM; TGI [53]: > 22.4 µM; TGI [54]: > 33.8 µM; GI50 [55]: 9.1 µM; TGI [55]: 44.3 µM

Question: CCCC(O)[C@@]1(CC)CC(C)C(O)(C2(C)C[C@H](C)[C@@H](C(CC)C(=O)C(C)[C@@H](O)[C@H](C)C3OC(O)(C(CC)C(=O)O)[C@@H](C)C(O)C3CC)O2)O1 (some centres undefined) was tested. Which TGI [56] did it give?
Answer: 5.07 µM

Question: And the TGI [1]?
Answer: 2.15 µM

Question: And the TGI [2]?
Answer: 5.71 µM

Question: And the TGI [57]?
Answer: 6.78 µM

Question: What about the TGI [58] of the same compound?
Answer: 1.41 µM

Question: And the TGI [3]?
Answer: 5.05 µM

Question: And the TGI [4]?
Answer: 7.36 µM

Question: And the TGI [5]?
Answer: 0.83 µM

Question: What about the TGI [59] of the same compound?
Answer: 8.86 µM

Question: What about the TGI [6] of the same compound?
Answer: 1.08 µM

Question: And the TGI [7]?
Answer: 5.93 µM

Question: What about the TGI [60] of the same compound?
Answer: 1.31 µM

Question: And the TGI [8]?
Answer: 4.21 µM

Question: And the TGI [9]?
Answer: 1.49 µM

Question: And the TGI [10]?
Answer: 1.6 µM

Question: What about the TGI [11] of the same compound?
Answer: 7.03 µM

Question: And the TGI [12]?
Answer: 0.233 µM

Question: And the TGI [13]?
Answer: 23.9 µM

Question: What about the TGI [14] of the same compound?
Answer: 2.3 µM

Question: And the TGI [15]?
Answer: 1.75 µM

Question: What about the TGI [61] of the same compound?
Answer: 2.99 µM

Question: And the TGI [16]?
Answer: 2.09 µM

Question: What about the TGI [17] of the same compound?
Answer: 9.81 µM

Question: And the TGI [19]?
Answer: 2.06 µM

Question: And the TGI [20]?
Answer: 4.13 µM

Question: And the TGI [21]?
Answer: 1.57 µM

Question: And the TGI [62]?
Answer: 3.91 µM

Question: What about the TGI [63] of the same compound?
Answer: 2.15 µM

Question: And the TGI [22]?
Answer: 2.17 µM

Question: And the TGI [23]?
Answer: 0.392 µM

Question: And the TGI [24]?
Answer: 2.17 µM

Question: And the TGI [64]?
Answer: 2.11 µM

Question: What about the TGI [65] of the same compound?
Answer: 1.2 µM

Question: What about the TGI [66] of the same compound?
Answer: 1.86 µM

Question: And the TGI [26]?
Answer: 2.99 µM

Question: What about the TGI [27] of the same compound?
Answer: 2.28 µM

Question: And the TGI [28]?
Answer: 2.14 µM

Question: What about the TGI [29] of the same compound?
Answer: 0.537 µM

Question: And the TGI [30]?
Answer: 1.82 µM

Question: What about the TGI [31] of the same compound?
Answer: 2.62 µM

Question: What about the TGI [32] of the same compound?
Answer: 6.94 µM

Question: And the TGI [33]?
Answer: 5.35 µM

Question: And the TGI [34]?
Answer: 6.05 µM

Question: And the TGI [67]?
Answer: 1.76 µM

Question: What about the TGI [68] of the same compound?
Answer: 1.61 µM

Question: And the TGI [69]?
Answer: 1.93 µM

Question: And the TGI [38]?
Answer: 2.21 µM

Question: And the TGI [39]?
Answer: 4.91 µM

Question: What about the TGI [40] of the same compound?
Answer: 2.76 µM

Question: What about the TGI [41] of the same compound?
Answer: 1.73 µM

Question: And the TGI [42]?
Answer: 1.69 µM

Question: And the TGI [43]?
Answer: 1.18 µM

Question: And the TGI [44]?
Answer: 6.54 µM

Question: And the TGI [45]?
Answer: 2.39 µM

Question: What about the TGI [47] of the same compound?
Answer: 3.15 µM

Question: What about the TGI [48] of the same compound?
Answer: 2.18 µM

Question: And the TGI [49]?
Answer: 31.7 µM

Question: What about the TGI [50] of the same compound?
Answer: 2.9 µM

Question: What about the TGI [70] of the same compound?
Answer: 6.74 µM

Question: What about the TGI [51] of the same compound?
Answer: 1.82 µM

Question: And the TGI [52]?
Answer: 1.94 µM

Question: What about the TGI [53] of the same compound?
Answer: 2.86 µM

Question: And the TGI [54]?
Answer: 3.18 µM

Question: And the TGI [55]?
Answer: 2.43 µM
